In publication PMC4300089, “Structure-Guided Design of Selective Epac1 and Epac2 Agonists” (PLoS Biology, 2015):

Columns and labels:
Epac2 = molecular target: T1, Epac2 (Mus musculus, UniProt Q9EQZ6); assay: Cellular Epac activity: Rap•GTP levels in U2OS cells stably expressing Epac2; format: cell-based, homo sapiens; details: for rel. RapGTP: relative to induction with forskolin and IBMX, Fig. 6C
T1 construct: pBabe-Flag-Epac2 (Epac2, mus musculus, amino acids 1–993); expressed in transfected cells; host or cells: U2OS
T1 sequence (Q9EQZ6 1-993 isoform Q9EQZ6-3): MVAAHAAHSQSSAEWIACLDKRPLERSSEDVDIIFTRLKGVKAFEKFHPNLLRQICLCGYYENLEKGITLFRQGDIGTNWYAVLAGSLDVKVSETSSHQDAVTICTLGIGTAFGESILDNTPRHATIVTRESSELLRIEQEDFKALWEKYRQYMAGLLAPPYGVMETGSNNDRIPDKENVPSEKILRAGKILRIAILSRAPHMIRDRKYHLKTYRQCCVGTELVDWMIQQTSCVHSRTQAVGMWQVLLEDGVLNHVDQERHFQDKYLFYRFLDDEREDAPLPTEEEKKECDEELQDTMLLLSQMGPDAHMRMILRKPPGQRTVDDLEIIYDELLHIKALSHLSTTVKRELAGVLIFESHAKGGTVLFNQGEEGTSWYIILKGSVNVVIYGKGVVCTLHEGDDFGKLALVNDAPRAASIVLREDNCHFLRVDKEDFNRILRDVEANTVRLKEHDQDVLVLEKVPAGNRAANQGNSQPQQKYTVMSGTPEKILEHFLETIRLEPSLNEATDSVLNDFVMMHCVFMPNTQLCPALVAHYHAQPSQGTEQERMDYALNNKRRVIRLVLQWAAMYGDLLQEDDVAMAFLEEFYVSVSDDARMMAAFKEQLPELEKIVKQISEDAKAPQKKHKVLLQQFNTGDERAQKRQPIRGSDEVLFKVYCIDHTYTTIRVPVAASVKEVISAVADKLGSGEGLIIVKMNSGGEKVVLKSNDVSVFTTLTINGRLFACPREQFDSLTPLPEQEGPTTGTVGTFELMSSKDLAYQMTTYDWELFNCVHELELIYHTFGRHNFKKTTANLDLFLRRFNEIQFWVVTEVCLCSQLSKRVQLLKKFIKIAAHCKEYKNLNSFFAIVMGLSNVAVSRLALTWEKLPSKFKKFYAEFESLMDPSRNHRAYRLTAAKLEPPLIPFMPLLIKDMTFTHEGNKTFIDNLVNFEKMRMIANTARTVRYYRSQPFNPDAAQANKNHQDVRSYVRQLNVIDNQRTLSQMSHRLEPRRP
Experimental: Rap•GTP levels were determined by precipitating GTP-bound Rap specifically from cell lysates and subsequent western Blotting with an α-Rap antibody (Santa Cruz Biotechnology). To generate stable cell lines, U2OS cells were transfected with pBabe-Flag-Epac1 (Epac1, homo sapiens, amino acids 1–881) or pBabe-Flag-Epac2 (Epac2, mus musculus, amino acids 1–993), selected for Epac expression and maintained under selection with 2 mg/l puromycin. The cells were cultured according to standard protocols. The activity of PKA was determined by western blotting with a monoclonal α-VASP antibody (BD Transduction Laboratories). Blots were developed by enhanced chemiluminescence (ECL) and the use of X-ray films; for quantification films were scanned. The intensities of the Rap•GTP bands and the upper band of VASP (P-VASP) were determined for each condition in ImageJ and normalized to the stimulation with forskolin and IBMX for each blot.

Epac1 = molecular target: T2, Epac1 (Homo sapiens, UniProt O95398); parameters: method as in PMID 12888551; details: footnote c, see also ref 13; cited from earlier work
T2 construct: made in house
T2 sequence (O95398 150-881 isoform O95398-3): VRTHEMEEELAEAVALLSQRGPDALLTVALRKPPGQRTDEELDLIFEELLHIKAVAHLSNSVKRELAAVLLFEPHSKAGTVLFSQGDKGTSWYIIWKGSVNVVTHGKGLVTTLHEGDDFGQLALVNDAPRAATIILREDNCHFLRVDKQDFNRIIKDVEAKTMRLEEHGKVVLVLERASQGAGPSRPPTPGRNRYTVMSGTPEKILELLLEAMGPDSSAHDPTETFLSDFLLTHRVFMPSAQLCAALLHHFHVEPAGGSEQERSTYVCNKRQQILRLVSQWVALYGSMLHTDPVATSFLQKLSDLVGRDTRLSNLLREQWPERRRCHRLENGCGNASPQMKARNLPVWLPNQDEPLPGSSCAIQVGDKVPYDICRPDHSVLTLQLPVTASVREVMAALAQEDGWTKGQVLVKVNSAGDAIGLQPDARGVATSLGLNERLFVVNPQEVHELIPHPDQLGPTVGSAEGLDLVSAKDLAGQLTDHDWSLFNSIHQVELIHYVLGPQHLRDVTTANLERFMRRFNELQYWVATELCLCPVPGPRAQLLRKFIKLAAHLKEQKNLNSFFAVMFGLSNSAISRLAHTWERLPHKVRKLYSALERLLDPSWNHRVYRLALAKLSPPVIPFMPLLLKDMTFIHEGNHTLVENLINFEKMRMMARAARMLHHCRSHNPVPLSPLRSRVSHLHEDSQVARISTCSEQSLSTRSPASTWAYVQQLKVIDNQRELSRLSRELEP

PKA-Iβ = molecular target: T3, PKA-Iβ (Homo sapiens, UniProt P31321); assay: PKA activity assay, PKA-Iβ; format: biochemical; details: for EC50: read-out: Kact; for A (PKA activity): PKAIβ
T3 construct: made in house
T3 sequence (P31321 whole entry): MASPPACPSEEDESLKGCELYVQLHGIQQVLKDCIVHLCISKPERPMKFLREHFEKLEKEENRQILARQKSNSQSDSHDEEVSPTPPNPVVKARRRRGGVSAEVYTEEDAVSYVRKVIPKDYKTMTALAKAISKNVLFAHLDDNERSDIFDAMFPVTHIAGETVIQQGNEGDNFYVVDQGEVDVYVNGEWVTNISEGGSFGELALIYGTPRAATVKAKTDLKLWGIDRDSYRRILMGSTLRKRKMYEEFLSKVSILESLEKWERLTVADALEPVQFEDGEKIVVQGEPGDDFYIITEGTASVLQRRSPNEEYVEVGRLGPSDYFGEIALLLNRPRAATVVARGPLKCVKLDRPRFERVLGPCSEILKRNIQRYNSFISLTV
Experimental: (§1) The recombinant human PKA catalytic subunit (Cα1) and the four human PKA regulatory subunits (RIα, RIβ, RIIα, RIIβ) were expressed, purified, and characterized as described. […] PKA holoenzymes were formed by mixing the R- and C-subunit at a molar ratio of 1.2:1 and extensive dialysis against 20 mM MOPS (pH 7.0), 150 mM NaCl, 2.5 mM β-mercaptoethanol, supplemented with 1 mM ATP and 10 mM MgCl2 for PKA-I at 4°C overnight. PKA holoenzymes were used at about 20 nM for the activation assay. The apparent activation constants (Kact) were determined by fitting the concentration-dependent activity to a sigmoid dose-response model.

PKA-IIβ = molecular target: T4, PKA-IIβ (Homo sapiens, UniProt P31323); assay: PKA activity assay, PKA-IIβ; format: biochemical; details: for EC50: read-out: Kact; for A (PKA activity): PKAIIβ
T4 construct: made in house
T4 sequence (P31323 whole entry): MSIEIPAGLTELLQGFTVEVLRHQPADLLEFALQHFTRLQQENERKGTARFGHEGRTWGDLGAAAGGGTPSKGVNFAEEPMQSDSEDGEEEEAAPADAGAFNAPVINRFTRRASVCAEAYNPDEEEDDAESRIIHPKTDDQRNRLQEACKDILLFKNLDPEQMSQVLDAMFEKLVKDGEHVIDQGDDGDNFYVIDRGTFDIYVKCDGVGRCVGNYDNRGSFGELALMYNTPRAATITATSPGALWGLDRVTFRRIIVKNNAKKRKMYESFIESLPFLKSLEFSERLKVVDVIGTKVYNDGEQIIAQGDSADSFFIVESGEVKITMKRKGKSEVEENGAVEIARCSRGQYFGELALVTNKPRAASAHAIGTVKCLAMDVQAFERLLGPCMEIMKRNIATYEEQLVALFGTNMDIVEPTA
Experimental: as §1

Row | Structure (SMILES) | rel. RapGTP (Epac2) | AC50 (Epac1) | EC50 (PKA-Iβ; PKA-Iβ) | A (PKA activity) (PKA-Iβ; concentration 1 μM) | A (PKA activity) (PKA-Iβ; concentration 1.00E+01 μM) | A (PKA activity) (PKA-Iβ; concentration 1.00E-01 μM) | A (PKA activity) (PKA-Iβ; concentration 1.00E-02 μM) | A (PKA activity) (PKA-Iβ; concentration 1.00E-03 μM) | A (PKA activity) (PKA-Iβ; concentration 1.00E-05 μM) | A (PKA activity) (PKA-Iβ; concentration 2.50E+02 μM) | EC50 (PKA-IIβ; PKA-IIβ) | A (PKA activity) (PKA-IIβ; concentration 1 μM) | A (PKA activity) (PKA-IIβ; concentration 1.00E+01 μM) | A (PKA activity) (PKA-IIβ; concentration 1.00E-01 μM) | A (PKA activity) (PKA-IIβ; concentration 1.00E-02 μM) | A (PKA activity) (PKA-IIβ; concentration 1.00E-03 μM) | A (PKA activity) (PKA-IIβ; concentration 1.00E-04 μM) | A (PKA activity) (PKA-IIβ; concentration 1.00E-05 μM) | A (PKA activity) (PKA-IIβ; concentration 2.50E+02 μM) | A (PKA activity) (PKA-IIβ; concentration 2.50E-01 μM) | further results
1 | Nc1ncnc2c1nc(Sc1ccc(Cl)cc1)n2[C@@H]1O[C@@H]2COP(=O)(O)O[C@H]2[C@H]1O [L-026, 8-pCPT-cAMP] | 0.7828 | 900 nM |  |  |  |  |  |  |  |  |  |  |  |  |  |  |  |  |  |  | 
2 | Nc1ncnc2c1nc(SCc1ccccc1)n2[C@@H]1O[C@@H]2CO[P@](O)(=S)O[C@H]2[C@H]1O [S-220, Sp-8-BnT-cAMPS] | 1.2025 |  | 290 nM | 2.04E+01 U/mg | 2.34E+01 U/mg | 7.7375 U/mg | 4.3125 U/mg | 4.35 U/mg | 4.525 U/mg | 2.32E+01 U/mg | 210 nM | 1.92E+01 U/mg | 2.49E+01 U/mg | 1.08E+01 U/mg | 5.378 U/mg | 4.482 U/mg | 4.9341 U/mg | 2.8563 U/mg | 2.44E+01 U/mg | 1.60E+01 U/mg | Kact compared to cAMP (times higher) (PKA-Iβ; PKA-Iβ): three to eight times higher; A (PKA activity) (PKA-Iβ; concentration 1.70E-01 μM): 1.11E+01 U/mg; A (PKA activity) (PKA-Iβ; concentration 2.50E-01 μM): 1.38E+01 U/mg; A (PKA activity) (PKA-Iβ; concentration 5.00E-01 μM): 1.59E+01 U/mg; Kact compared to cAMP (times higher / affinity reduced) (PKA-IIβ; PKA-IIβ): comparable affinities; activation of Epac2 in cells (Epac2): efficiently activated
3 | COC1C2OP(=O)(O)OCC2OC1n1c(Sc2ccc(Cl)cc2)nc2c(N)ncnc21 [D-007, 8-pCPT-2′-O-Me-cAMP, reference compound] | 0.3431 | 1800 nM | 18000 nM | 5.38 U/mg | 9.18 U/mg | 5.43 U/mg |  | 4.7 U/mg | 4.53 U/mg | 1.60E+01 U/mg | 50000 nM | 6.99 U/mg | 1.06E+01 U/mg | 6.554 U/mg |  |  |  | 2.8563 U/mg | 1.60E+01 U/mg |  | A (PKA activity) (PKA-Iβ; concentration 1.00E+03 μM): 1.84E+01 U/mg; A (PKA activity) (PKA-Iβ; concentration 2.50E+01 μM): 1.31E+01 U/mg; A (PKA activity) (PKA-Iβ; concentration 2.50E+03 μM): 1.79E+01 U/mg; A (PKA activity) (PKA-IIβ; concentration 5.00E+01 μM): 1.46E+01 U/mg; A (PKA activity) (PKA-IIβ; concentration 5.00E+02 μM): 1.87E+01 U/mg; activation of Epac2 in cells (Epac2): only minor effects
4 | Nc1ncnc2c1ncn2C1OC2COP(O)(=S)OC2C1O (stereo not drawn) [S-000, Sp-cAMPS] |  | 90000 nM |  |  |  |  |  |  |  |  |  |  |  |  |  |  |  |  |  |  | Rel. kmax (Epac1): 1.4^c
5 | Nc1ncnc2c1ncn2[C@@H]1O[C@@H]2COP(=O)(O)O[C@H]2[C@H]1O [cAMP, reference compound] |  |  |  | 2.35E+01 U/mg | 2.37E+01 U/mg | 2.23E+01 U/mg | 7.2375 U/mg | 2.9 U/mg | 4.525 U/mg |  |  | 2.14E+01 U/mg | 2.50E+01 U/mg | 1.13E+01 U/mg | 4.087 U/mg | 4.309 U/mg | 4.252 U/mg | 2.8563 U/mg |  | 1.57E+01 U/mg | A (PKA activity) (PKA-Iβ; concentration 1.00E+02 μM): 2.44E+01 U/mg; A (PKA activity) (PKA-Iβ; concentration 2.50E-02 μM): 1.08E+01 U/mg; A (PKA activity) (PKA-Iβ; concentration 5.00E-02 μM): 1.54E+01 U/mg; A (PKA activity) (PKA-IIβ; concentration 1.00E+02 μM): 2.46E+01 U/mg; A (PKA activity) (PKA-IIβ; concentration 2.50E-02 μM): 5.477 U/mg; A (PKA activity) (PKA-IIβ; concentration 5.00E-01 μM): 1.81E+01 U/mg; A (PKA activity) (PKA-IIβ; concentration 5.00E-02 μM): 9.071 U/mg
6 | Cc1ccc(CSc2nc3c(N)ncnc3n2[C@@H]2O[C@@H]3CO[P@](O)(=S)O[C@H]3[C@H]2O)cc1 [S-230, Sp-8-pMeBnT-cAMPS] |  |  |  |  | 2.81 U/mg | 5.21 U/mg |  | 4.71 U/mg | 4.53 U/mg | 3.19 U/mg |  | 2.854 U/mg | 3.182 U/mg | 1.472 U/mg | 1.965 U/mg | 1.941 U/mg |  | 2.019 U/mg |  |  | A (PKA activity) (PKA-IIβ; concentration 5.00E+01 μM): 6.801 U/mg; A (PKA activity) (PKA-IIβ; concentration 5.00E+02 μM): 9.038 U/mg
